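Tested at 5 concentrations; 48 h exposure; 96-well plates; endpoints linearly interpolated, else capped at highest concentration. GI50 marks 50% less growth. The concentration for full growth arrest is given as TGI.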
Legend:
Assay in all cases: growth of human tumour cells (NCI), 48 h
[1] = test system: 786-0 renal
[2] = test system: A498 renal
[3] = test system: A549 NSCLC
[4] = test system: ACHN renal
[5] = test system: BT-549 breast
[6] = test system: CAKI-1 renal
[7] = test system: CCRF-CEM leukemia
[8] = test system: COLO 205 colon
[9] = test system: DU-145 prostate
[10] = test system: EKVX NSCLC
[11] = test system: HCC-2998 colon
[12] = test system: HCT-116 colon
[13] = test system: HCT-15 colon
[14] = test system: HOP-62 NSCLC
[15] = test system: HOP-92 NSCLC
[16] = test system: HT29 colon
[17] = test system: IGROV1 ovarian
[18] = test system: K-562 leukemia
[19] = test system: KM12 colon
[20] = test system: LOX IMVI melanoma
[21] = test system: M14 melanoma
[22] = test system: MALME-3M melanoma
[23] = test system: MCF7 breast
[24] = test system: MDA-MB-231 breast
[25] = test system: MDA-MB-435
[26] = test system: MDA-MB-468 breast
[27] = test system: MOLT-4 leukemia

Cc1ccccc1Nc1nnc(-c2c[nH]c3ccccc23)o1
GI50 [1]: 5.58 µM
TGI [1]: > 100 µM
GI50 [2]: > 100 µM
TGI [2]: > 100 µM
GI50 [3]: 6.09 µM
TGI [3]: > 100 µM
GI50 [4]: 4.32 µM
TGI [4]: > 100 µM
GI50 [5]: 3.7 µM
TGI [5]: > 100 µM
GI50 [6]: 0.897 µM
TGI [6]: > 100 µM
GI50 [7]: 2.09 µM
TGI [7]: > 100 µM
GI50 [8]: 2.22 µM
TGI [8]: 16.7 µM
GI50 [9]: 5.47 µM
TGI [9]: > 100 µM
GI50 [10]: 4.48 µM
TGI [10]: > 100 µM
GI50 [11]: 3.3 µM
TGI [11]: 15.9 µM
GI50 [12]: 5.96 µM
TGI [12]: > 100 µM
GI50 [13]: 1.78 µM
TGI [13]: > 100 µM
GI50 [14]: 3.6 µM
TGI [14]: > 100 µM
GI50 [15]: 5.66 µM
TGI [15]: > 100 µM
GI50 [16]: 2.13 µM
TGI [16]: 11.6 µM
GI50 [17]: 2.32 µM
TGI [17]: > 100 µM
GI50 [18]: 0.531 µM
TGI [18]: > 100 µM
GI50 [19]: 4.6 µM
TGI [19]: > 100 µM
GI50 [20]: 2.96 µM
TGI [20]: > 100 µM
GI50 [21]: 1.32 µM
TGI [21]: > 100 µM
GI50 [22]: 0.869 µM
TGI [22]: > 100 µM
GI50 [23]: 3.02 µM
TGI [23]: > 100 µM
GI50 [24]: 3.68 µM
TGI [24]: > 100 µM
GI50 [25]: 0.298 µM
TGI [25]: 1.13 µM
GI50 [26]: 2.21 µM
TGI [26]: 7.14 µM
GI50 [27]: 2.55 µM
TGI [27]: > 100 µM

Source: PubChem BioAssay (NCI)
